Data: publication PMC4501006, “Preliminary Characterization and In Vivo Studies of Structurally Identical ^18F- and ^125I-Labeled Benzyloxybenzenes for PET/SPECT Imaging of β-Amyloid Plaques” (Scientific Reports, 2015)

Key:
[1] = In vivo metabolism (biostability), HPLC analysis of organ samples; settings: ICR mice, i.v.
Procedure: All four radioactive ligands degraded to two corresponding polar radioactive products with shorter retention times. […] The good in vivo biostability of these compounds enhances their potential for SPECT mapping of the brain. […] In the plasma, all four ligands were rapidly converted to polar metabolites, leaving only approximately 10% of the parent tracers at 60 min. […] In contrast, the breakdown of [^125I]7a and [^125I]12a was so rapid that almost negligible amounts of parent tracers remained at 30 min (8.8% and 6.3%, respectively). The polar and hydrophilic metabolites metabolized by the liver could be absorbed by the intestine and excreted through the urine, in accordance with the biodistribution results. The rapid metabolism in the liver may be another reason for the faster clearance of these compounds from the normal brain. For structurally identical molecules labeled with radioactive isotopes at different positions, the in vivo metabolic pathways were expected to be the same. However, as only radioactive products can be detected with PET/SPECT scanners, different pharmacokinetics of the radioactive components could lead to different imaging results. […] The dual radiolabeled identical benzyloxybenzene derivatives in this study were expected to undergo the same metabolic reactions, generating different radioactive metabolites. Differences in the biochemical characteristics of the radiometabolites including absorption, distribution, metabolism and excretion are responsible for the discrepancy in the pharmacokinetics of the radioactivity.

[2] = target: Aβ plaques (Homo sapiens, UniProt P05067); test: In vitro autoradiography on AD human brain sections; assay type: binding
Excerpt: Figure 5 In vitro autoradiography of [^125I]7a (a–d), [^18F]7a (e–h), [^125I]12a (i–l) and [^18F]12a (m–p).

Chain of Aβ plaques (P05067 672-711 limits assumed): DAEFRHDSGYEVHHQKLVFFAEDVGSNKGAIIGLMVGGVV

Percentage of Parent tracer, Brain ([1]; post-injection time 2 min) [%] | Percentage of Parent tracer, Feces ([1]; post-injection time 2 min) [%] | Percentage of Parent tracer, Liver ([1]; post-injection time 2 min) [%] | Percentage of Parent tracer, Plasma ([1]; post-injection time 2 min) [%] | Percentage of Parent tracer, Urine ([1]; post-injection time 2 min) [%] | Percentage of Parent tracer, Brain ([1]; post-injection time 10 min) [%] | Percentage of Parent tracer, Feces ([1]; post-injection time 10 min) [%] | Percentage of Parent tracer, Liver ([1]; post-injection time 10 min) [%] | Percentage of Parent tracer, Plasma ([1]; post-injection time 10 min) [%] | Percentage of Parent tracer, Urine ([1]; post-injection time 10 min) [%] | Percentage of Parent tracer, Brain ([1]; post-injection time 30 min) [%] | Percentage of Parent tracer, Feces ([1]; post-injection time 30 min) [%] | Percentage of Parent tracer, Liver ([1]; post-injection time 30 min) [%] | Percentage of Parent tracer, Plasma ([1]; post-injection time 30 min) [%] | Percentage of Parent tracer, Urine ([1]; post-injection time 30 min) [%] | Percentage of Parent tracer, Brain ([1]; post-injection time 60 min) [%] | Percentage of Parent tracer, Feces ([1]; post-injection time 60 min) [%] | Percentage of Parent tracer, Liver ([1]; post-injection time 60 min) [%] | Percentage of Parent tracer, Plasma ([1]; post-injection time 60 min) [%] | Percentage of Parent tracer, Urine ([1]; post-injection time 60 min) [%] | Compound | also measured
84.7 | 53.6 | 79.5 | 43.1 | 0.0 | 69.8 | 18.8 | 62.6 | 21.6 | 0.0 | 68.9 | 10.5 | 48.7 | 21.8 | 0.0 | 34.0 | 7.3 | 23.4 | 7.2 | 0.0 | [18F]CCOc1ccc(OCc2ccc(I)cc2)cc1 [[^18F]7a] | in vitro autoradiography, plaque labeling [2]: specifically label Aβ deposits
95.9 | 22.9 | 35.2 | 85.2 | 0.0 | 86.0 | 58.8 | 13.5 | 41.3 | 2.6 | 79.4 | 2.0 | 8.8 | 22.1 | 0.0 | 72.1 | 0.0 | 3.3 | 12.3 | 0.0 | FCCOc1ccc(OCc2ccc([125I])cc2)cc1 [[^125I]7a] | in vitro autoradiography, plaque labeling [2]: specifically label Aβ deposits
87.9 | 46.7 | 91.1 | 73.7 | 0.0 | 65.7 | 20.9 | 85.3 | 40.4 | 0.0 | 49.2 | 16.8 | 82.2 | 34.1 | 0.0 | 29.8 | 17.4 | 21.7 | 13.9 | 0.0 | [18F]CCOc1ccc(COc2ccc(I)cc2)cc1 [[^18F]12a] | in vitro autoradiography, plaque labeling [2]: specifically label Aβ deposits
